Earlier results as cited in PMC3759941 (International Journal of Molecular Sciences, 2013).
Where two headings read alike, the source gives them in different places.

Tested on: EeAChE

SMILES | IC50 (Table 2, bis-pyridinium reactivators) [mM] | IC50 (Table 3) [mM] | IC50 (Table 1, mono-pyridinium reactivators) [mM]
ON=Cc1cc[n+](CCC[n+]2ccc(/C=N/O)cc2)cc1 [Compound 6, trimedoxime] | 51.9 | 51.9 | –
ON=Cc1cc[n+](C/C=C/C[n+]2ccc(C=NO)cc2)cc1 [Compound 23] | – | 36.7 | –
C[n+]1ccccc1/C=N/O [Compound 1, 2-pyridine aldoxime methiodide] | – | – | 54.9
